Results as given in patent US20220305012A1, “L[…] TREATING SLEEP ISSUES” (EISAI R&D MANAGEMENT CO., LTD., priority 2019, published 2022).

Key:
Assay type in all cases: in vivo, human
[1] = system: Subjects Having Insomnia Disorder; experiment: Example 2: Insomnia Severity Index Daytime Functioning (Items 4-7); conditions: for Insomnia Severity Daytime Functioning (Items 4-7), Change from Study Baseline, Mean (SD) / Insomnia Severity Daytime Functioning (Items 4-7), Change from Study Baseline, Median / Insomnia Severity Daytime Functioning (Items 4-7), Mean (SD) / Insomnia Severity Daytime Functioning (Items 4-7), Median: Day 31
Excerpt: As used herein, the term “Insomnia Severity Index”, abbreviated as “ISI”, is an index calculated using a 7-item, self-report questionnaire assessing the nature, severity, and impact of insomnia (see Bastien, C. H., et al. “Validation of the Insomnia Severity Index as an outcome measure for insomnia research.” Sleep Med. 2001; 2(4): 297-307). The questionnaire evaluates: (1) severity of sleep onset; (2) sleep maintenance; (3) early morning awakening problems; (4) sleep dissatisfaction; (5) interference caused by sleep difficulties with daytime functioning; (6) noticeability of sleep problems by others; and (7) distress caused by the sleep difficulties. A 5-point scale is used to rate each item (0=no problem to 4=very severe problem) yielding a total score from 0 to 28. Total ISI score (items (1)-(7)) and daytime functioning (items (4)-(7)) are analyzed separately.
On day 1 of the baseline period, subjects were admitted to the clinic and ISI, FSS, and EQ-5D-3L were administered. Blood and urine samples were collected for routine safety assessments, an ECG was performed, and vital signs and weight were assessed. The eC-SSRS was administered. Subjects who completed the baseline period and continued to meet the eligibility criteria were randomized and began the randomization phase.
(§1) On the evening of Day 30, subjects returned to the clinic. A pre-dose blood sample was collected and study drug was again administered within 5 minutes of the subject's mean habitual bedtime. A polysomnogram recording was initiated. The following morning (Day 31), postural stability and cognitive performance were assessed and a blood sample was obtained. The ISI, FSS, EQ-5D-3L and PGI-Insomnia were administered. Blood and urine samples were collected for routine safety assessment. An electrocardiogram was performed, and vital signs and weight were assessed. The eC-SSRS was then administered to the subject. At 1.5 hours after waketime, subjects rated their morning sleepiness level.

[2] = system: Subjects Having Insomnia Disorder; experiment: Example 2: subjective sleep efficiency (sSE), sleep diary
Excerpt: As used herein, the term “subjective sleep efficiency”, abbreviated as “sSE”, means the proportion of sTST per subjective time spent in bed, calculated as the interval from the time the subject reports attempting to sleep until the time the subject stopped trying to sleep for the night (operationalized as the time the subject got out of bed for the day), and time spent asleep derived from subjective time spent in bed minus sWASO. As used herein, an “improvement of sleep efficiency in Subjective Sleep Efficiency (sSE)” means an increase in sleep efficiency in Subjective Sleep Efficiency (sSE).
In some embodiments, sleep diaries were used to assess sleep parameters reported by subjects (i.e., subjective assessments) including subjective sleep onset latency (sSOL), subjective sleep efficiency (sSE), subjective WASO (sWASO), and subjective total sleep time (sTST). Subjects were instructed to complete the Sleep Diary developed based on the consensus Sleep Diary as described in Carney et al., “The consensus sleep diary: standardizing prospective sleep self-monitoring,” Sleep 2012; 35(2):287-302. In some embodiments, the Sleep Diary was used to assess the subject's global perception of quality of sleep on the previous night with the following question: “How would you rate the quality of your sleep last night?” Subjects rated the quality of their sleep on a scale from 1 to 9, with 1 being extremely poor and 9 being extremely good. In some embodiments, the Sleep Diary was used to assess subjective ratings of morning sleepiness with the following question: “How alert/sleepy do you feel this morning?” Subjects rated their sleepiness/alertness level on a Likert scale from 1 to 9, with 1 being extremely sleepy and 9 being extremely alert.
sSE—subjective sleep efficiency: proportion of sTST per subjective time spent in bed, calculated as the interval from the time the subject reports attempting to sleep until the time the subject stopped trying to sleep for the night (operationalized as the time the subject got out of bed for the day), and time spent asleep derived from subjective time in bed minus sWASO.
(§2) The treatment period lasted for 31 days. Subjects were randomized in a double-blind manner and received placebo, a tablet containing 5 mg of lemborexant, a tablet containing 10 mg of lemborexant, or a tablet containing 6.25 mg of zolpidem ER.
Once home, the subject ingested study drug each night prior to bedtime and completed their sleep diary within 1 hour of waketime.

[3] = system: Subjects Having Insomnia Disorder; experiment: Example 2: sleep efficiency (SE), polysomnography
Method: (§3) In some embodiments, a sleep parameter is determined objectively using polysomnography. Polysomnography is the monitoring of multiple electrophysiological parameters during sleep and generally includes measurement of EEG activity, electro-oculographic activity and electromyographic activity, as well as other measurements.
SE—sleep efficiency: proportion of time spent asleep per time in bed, calculated as TST/interval from lights off until lights on.
as §2
(§4) Within 5 minutes of the subject's mean habitual bedtime, study drug was administered and an overnight polysomnogram recording was initiated. At completion of the recording the following morning (Day 2), postural stability and cognitive performance were assessed. On the Day 2 evening, subjects returned to the clinic and a blood sample was collected before administering study drug, and then study drug was administered within 5 minutes of the subject's mean habitual bedtime. Again, a polysomnogram recording was initiated. The next morning (Day 3), postural stability and cognitive performance were assessed. A blood sample was also collected.
(§5) On Day 29, subjects returned to the clinic. Study drug was administered within 5 minutes of the subject's mean habitual bedtime and a polysomnogram recording was conducted. On the following morning (Day 30), postural stability and cognitive performance were assessed. After 1.5 hours of waketime, subjects rated their morning sleepiness level.
as §1
One key secondary endpoint was to determine the change from baseline for mean sleep efficiency on Days 29 and 30 after administration of 5 mg or 10 mg of lemborexant, compared to placebo.

[4] = system: Subjects Having Insomnia Disorder; experiment: Example 2: total sleep time (TST), polysomnography
Method: as §3
TST—total sleep time: minutes of sleep from sleep onset until terminal awakening.
as §2, §4, §5, §1

[5] = First 7 Nights of Treatment, Lemborexant 5 mg
[6] = First 7 Nights of Treatment, Lemborexant 10 mg
[7] = Last 7 Nights of Treatment, Lemborexant 5 mg
[8] = Last 7 Nights of Treatment, Lemborexant 10 mg

## Cc1ncc(OC[C@@]2(c3cccc(F)c3)C[C@H]2C(=O)Nc2ccc(F)cn2)c(C)n1 [Lemborexant, (1R,2S)-2-(((2,4-dimethylpyrimidin-5-yl)oxy)methyl)-2-(3-fluorophenyl)-N-(5-fluoropyridin-2-yl)cyclopropanecarboxamide]
[1]; Lemborexant 5 mg
  Insomnia Severity Daytime Functioning (Items 4-7), Change from Study Baseline, Mean (SD): −4.83 (3.593)
  Insomnia Severity Daytime Functioning (Items 4-7), Change from Study Baseline, Median: −4.00
  Insomnia Severity Daytime Functioning (Items 4-7), Mean (SD): 6.12 (3.488)
  Insomnia Severity Daytime Functioning (Items 4-7), Median: 6.00
[1]; Lemborexant 10 mg
  Insomnia Severity Daytime Functioning (Items 4-7), Change from Study Baseline, Mean (SD): −4.77 (3.735)
  Insomnia Severity Daytime Functioning (Items 4-7), Change from Study Baseline, Median: −4.00
  Insomnia Severity Daytime Functioning (Items 4-7), Mean (SD): 6.10 (3.617)
  Insomnia Severity Daytime Functioning (Items 4-7), Median: 6.00
[1]; lemborexant treatment groups, relative to baseline and the placebo treatment group (Table 23)
  mean insomnia severity index daytime score: reduced
[2]; 10 mg, relative to baseline, placebo and zolpidem treatment groups (Table 19)
  mean subjective sleep efficiency: increased
[2]; [5]
  Subjective Sleep Efficiency, Change from Study Baseline, Mean (SD): 10.56 (12.296)
  Subjective Sleep Efficiency, Mean (SD): 65.96 (18.203)
  Subjective Sleep Efficiency, Model-adjusted change from baseline: 10.74
[2]; [6]
  Subjective Sleep Efficiency, Change from Study Baseline, Mean (SD): 13.97 (14.188)
  Subjective Sleep Efficiency, Mean (SD): 68.10 (18.356)
  Subjective Sleep Efficiency, Model-adjusted change from baseline: 13.81
[2]; [7]
  Subjective Sleep Efficiency, Change from Study Baseline, Mean (SD): 12.92 (13.884)
  Subjective Sleep Efficiency, Mean (SD): 68.19 (19.251)
  Subjective Sleep Efficiency, Model-adjusted change from baseline: 13.29
[2]; [8]
  Subjective Sleep Efficiency, Change from Study Baseline, Mean (SD): 16.12 (16.3000)
  Subjective Sleep Efficiency, Mean (SD): 69.92 (19.098)
  Subjective Sleep Efficiency, Model-adjusted change from baseline: 15.87
[3]; Days 1/2, Lemborexant 5 mg
  Sleep Efficiency, Change from Study Baseline, Mean (SD): 13.60 (9.725)
  Sleep Efficiency, Change from Study Baseline, Median: 12.40
  Sleep Efficiency, Mean (SD): 81.96 (8.384)
  Sleep Efficiency, Median: 83.62
[3]; Days 1/2, Lemborexant 10 mg
  Sleep Efficiency, Change from Study Baseline, Mean (SD): 16.48 (9.623)
  Sleep Efficiency, Change from Study Baseline, Median: 15.47
  Sleep Efficiency, Mean (SD): 84.33 (7.608)
  Sleep Efficiency, Median: 85.73
[3]; Days 29/30, Lemborexant 5 mg
  Sleep Efficiency, Change from Study Baseline, LSM treatment difference: Lemborexant-Zolpidem: 3.92 (0.705)
  Sleep Efficiency, Change from Study Baseline, Mean (SD): 12.93 (9.741)
  Sleep Efficiency, Change from Study Baseline, Median: 11.85
  Sleep Efficiency, Mean (SD): 81.29 (8.800)
  Sleep Efficiency, Median: 83.26
[3]; Days 29/30, Lemborexant 10 mg
  Sleep Efficiency, Change from Study Baseline, LSM treatment difference: Lemborexant-Zolpidem: 4.88 (0.702)
  Sleep Efficiency, Change from Study Baseline, Mean (SD): 14.09 (10.514)
  Sleep Efficiency, Change from Study Baseline, Median: 13.57
  Sleep Efficiency, Mean (SD): 81.99 (8.801)
  Sleep Efficiency, Median: 83.52
[3]; all lemborexant treatment groups, relative to baseline, placebo and zolpidem treatment groups (Table 14)
  mean sleep efficiency: increased
[4]; Days 1/2, Lemborexant 5 mg
  Total Sleep Time, Change from Study Baseline, Mean (SD): 65.22 (46.695)
  Total Sleep Time, Change from Study Baseline, Median: 59.50
  Total Sleep Time, Mean (SD): 393.22 (40.346)
  Total Sleep Time, Median: 400.63
[4]; Days 1/2, Lemborexant 10 mg
  Total Sleep Time, Change from Study Baseline, Mean (SD): 79.58 (47.350)
  Total Sleep Time, Change from Study Baseline, Median: 74.25
  Total Sleep Time, Mean (SD): 404.65 (36.593)
  Total Sleep Time, Median: 411.50
[4]; Days 29/30, Lemborexant 5 mg
  Total Sleep Time, Change from Study Baseline, LSM treatment difference: Lemborexant-Zolpidem: 19.41 (3.457)
  Total Sleep Time, Change from Study Baseline, Mean (SD): 61.99 (46.817)
  Total Sleep Time, Change from Study Baseline, Median: 56.50
  Total Sleep Time, Mean (SD): 389.97 (42.437)
  Total Sleep Time, Median: 399.63
[4]; Days 29/30, Lemborexant 10 mg
  Total Sleep Time, Change from Study Baseline, LSM treatment difference: Lemborexant-Zolpidem: 24.10 (3.456)
  Total Sleep Time, Change from Study Baseline, Mean (SD): 67.86 (52.117)
  Total Sleep Time, Change from Study Baseline, Median: 65.13
  Total Sleep Time, Mean (SD): 393.16 (42.827)
  Total Sleep Time, Median: 400.88
[4]; all lemborexant treatment groups, relative to baseline, placebo and zolpidem treatment groups (Table 17)
  mean total sleep time: increased
